Tests used:
[1] = tested on: galium (catchweed bedstraw, Galium aparine); experiment: Test C preemergence; assay type: in vivo; conditions: scale 0 to 100, 0 is no effect, 100 is complete control
In short: (§1)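 Each species was evaluated by eye against untreated controls at 13 to 15 days post-treatment and rated 0–100, with 100 indicating complete control. Applications were made preemergence to seeded soil or postemergence to seedlings at the 1- to 4-leaf stage, using a surfactant-containing solvent formulation.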

[2] = tested on: lambsquarters (Chenopodium album); experiment: Test C preemergence; assay type: in vivo; conditions: scale 0 to 100, 0 is no effect, 100 is complete control
In short: as §1

[3] = tested on: soybean (Glycine max); experiment: Test C preemergence; assay type: in vivo; conditions: scale 0 to 100, 0 is no effect, 100 is complete control
In short: as §1

[4] = tested on: oilseed rape (Brassica napus); experiment: Test C preemergence; assay type: in vivo; conditions: scale 0 to 100, 0 is no effect, 100 is complete control
In short: as §1

[5] = tested on: large (Lg) crabgrass (Digitaria sanguinalis); experiment: Test C preemergence; assay type: in vivo; conditions: scale 0 to 100, 0 is no effect, 100 is complete control
In short: as §1

[6] = tested on: velvetleaf (Abutilon theophrasti); experiment: Test C preemergence; assay type: in vivo; conditions: scale 0 to 100, 0 is no effect, 100 is complete control
In short: as §1

[7] = tested on: ragweed (common ragweed, Ambrosia elatior); experiment: Test C preemergence; assay type: in vivo; conditions: scale 0 to 100, 0 is no effect, 100 is complete control
In short: as §1

[8] = tested on: johnsongrass (Sorghum halepense); experiment: Test C preemergence; assay type: in vivo; conditions: scale 0 to 100, 0 is no effect, 100 is complete control
In short: as §1

[9] = tested on: winter wheat (Triticum aestivum); experiment: Test C preemergence; assay type: in vivo; conditions: scale 0 to 100, 0 is no effect, 100 is complete control
In short: as §1

[10] = tested on: waterhemp (common waterhemp, Amaranthus rudis); experiment: Test C preemergence; assay type: in vivo; conditions: scale 0 to 100, 0 is no effect, 100 is complete control
In short: as §1

[11] = tested on: blackgrass (Alopecurus myosuroides); experiment: Test C preemergence; assay type: in vivo; conditions: scale 0 to 100, 0 is no effect, 100 is complete control
In short: as §1

[12] = tested on: giant foxtail (Setaria faberii); experiment: Test A preemergence, directed soil spray; assay type: in vivo; conditions: approx. 10 days
In short: (§2)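 Visual injury score, 0–100 scale (100 = complete control), versus untreated plants after ~10 days greenhouse. Pre: directed soil spray on seeded loam/sand. Post: 2–10 cm plants, 1–2 leaves. Solvent/surfactant formulation.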

[13] = tested on: barnyardgrass (Echinochloa crus-galli); experiment: Test A preemergence, directed soil spray; assay type: in vivo; conditions: approx. 10 days
In short: as §2

[14] = tested on: ragweed (common ragweed, Ambrosia elatior); experiment: Test A preemergence, directed soil spray; assay type: in vivo; conditions: approx. 10 days
In short: as §2

[15] = tested on: pigweed (Amaranthus retroflexus); experiment: Test A preemergence, directed soil spray; assay type: in vivo; conditions: approx. 10 days
In short: as §2

[16] = tested on: Italian ryegrass (Lolium multiflorum); experiment: Test A preemergence, directed soil spray; assay type: in vivo; conditions: approx. 10 days
In short: as §2

[17] = tested on: kochia (Kochia scoparia); experiment: Test A preemergence, directed soil spray; assay type: in vivo; conditions: approx. 10 days
In short: as §2

With O=c1cccc(Oc2ncc(Cl)cn2)n1-c1ccc(Cl)cc1 [Compound 1, 1-(4-chlorophenyl)-6-[(5-chloro-2-pyrimidinyl)oxy]-2(1H)-pyridinone] the melting point was 72 to 74 °C, the “Plant response rating, Galium” value ([1]; 16 g ai/ha) was 90 and the “Plant response rating, Galium” value ([1]; 31 g ai/ha) was 0. For the same compound, the “Plant response rating, Galium” value ([1]; 62 g ai/ha) was 0, the “Plant response rating, Galium” value ([1]; 125 g ai/ha) was 40 and the “Plant response rating, Lambsquarters” value ([2]; 16 g ai/ha) was 30. The “Plant response rating, Lambsquarters” value ([2]; 31 g ai/ha) was 20, the “Plant response rating, Lambsquarters” value ([2]; 62 g ai/ha) was 45 and the “Plant response rating, Lambsquarters” value ([2]; 125 g ai/ha) was 60. For the same compound, the “Plant response rating, Soybean” value ([3]; 16 g ai/ha) was 0, the “Plant response rating, Soybean” value ([3]; 31 g ai/ha) was 10 and the “Plant response rating, Soybean” value ([3]; 62 g ai/ha) was 10. The “Plant response rating, Oilseed Rape” value ([4]; 16 g ai/ha) was 0, the “Plant response rating, Oilseed Rape” value ([4]; 31 g ai/ha) was 0 and the “Plant response rating, Oilseed Rape” value ([4]; 62 g ai/ha) was 10. The “Plant response rating, Oilseed Rape” value ([4]; 125 g ai/ha) was 60, the “Plant response rating, Crabgrass, Large” value ([5]; 16 g ai/ha) was 5 and the “Plant response rating, Crabgrass, Large” value ([5]; 31 g ai/ha) was 70. The “Plant response rating, Crabgrass, Large” value ([5]; 62 g ai/ha) was 98, the “Plant response rating, Crabgrass, Large” value ([5]; 125 g ai/ha) was 100 and the “Plant response rating, Velvetleaf” value ([6]; 16 g ai/ha) was 0. The “Plant response rating, Velvetleaf” value ([6]; 31 g ai/ha) was 0, the “Plant response rating, Velvetleaf” value ([6]; 62 g ai/ha) was 5 and the “Plant response rating, Velvetleaf” value ([6]; 125 g ai/ha) was 10. The “Plant response rating, Ragweed” value ([7]; 16 g ai/ha) was 0, the “Plant response rating, Ragweed” value ([7]; 31 g ai/ha) was 0 and the “Plant response rating, Ragweed” value ([7]; 62 g ai/ha) was 10. For the same compound, the “Plant response rating, Ragweed” value ([7]; 125 g ai/ha) was 0, the “Plant response rating, Johnsongrass” value ([8]; 16 g ai/ha) was 0 and the “Plant response rating, Johnsongrass” value ([8]; 31 g ai/ha) was 0. For the same compound, the “Plant response rating, Johnsongrass” value ([8]; 62 g ai/ha) was 5, the “Plant response rating, Johnsongrass” value ([8]; 125 g ai/ha) was 15 and the “Plant response rating, Wheat” value ([9]; 16 g ai/ha) was 0. The “Plant response rating, Wheat” value ([9]; 31 g ai/ha) was 0, the “Plant response rating, Wheat” value ([9]; 62 g ai/ha) was 0 and the “Plant response rating, Wheat” value ([9]; 125 g ai/ha) was 0. The “Plant response rating, Waterhemp” value ([10]; 16 g ai/ha) was 20, the “Plant response rating, Waterhemp” value ([10]; 31 g ai/ha) was 65 and the “Plant response rating, Waterhemp” value ([10]; 62 g ai/ha) was 100. The “Plant response rating, Waterhemp” value ([10]; 125 g ai/ha) was 100, the “Plant response rating, Blackgrass” value ([11]; 16 g ai/ha) was 0 and the “Plant response rating, Blackgrass” value ([11]; 31 g ai/ha) was 20. For the same compound, the “Plant response rating, Blackgrass” value ([11]; 62 g ai/ha) was 25, the “Plant response rating, Blackgrass” value ([11]; 125 g ai/ha) was 85 and the “Plant response rating (0 to 100 scale, 0 no effect, 100 complete control), Foxtail, Giant” value ([12]; 125 g ai/ha) was 90. For the same compound, the “Plant response rating (0 to 100 scale, 0 no effect, 100 complete control), Foxtail, Giant” value ([12]; 500 g ai/ha) was 100, the “Plant response rating (0 to 100 scale, 0 no effect, 100 complete control), Barnyardgrass” value ([13]; 125 g ai/ha) was 30 and the “Plant response rating (0 to 100 scale, 0 no effect, 100 complete control), Barnyardgrass” value ([13]; 500 g ai/ha) was 100. The “Plant response rating (0 to 100 scale, 0 no effect, 100 complete control), Ragweed” value ([14]; 125 g ai/ha) was 0, the “Plant response rating (0 to 100 scale, 0 no effect, 100 complete control), Ragweed” value ([14]; 500 g ai/ha) was 20 and the “Plant response rating (0 to 100 scale, 0 no effect, 100 complete control), Pigweed” value ([15]; 125 g ai/ha) was 40. For the same compound, the “Plant response rating (0 to 100 scale, 0 no effect, 100 complete control), Pigweed” value ([15]; 500 g ai/ha) was 100, the “Plant response rating (0 to 100 scale, 0 no effect, 100 complete control), Ryegrass, Italian” value ([16]; 125 g ai/ha) was 0 and the “Plant response rating (0 to 100 scale, 0 no effect, 100 complete control), Ryegrass, Italian” value ([16]; 500 g ai/ha) was 20. The “Plant response rating (0 to 100 scale, 0 no effect, 100 complete control), Kochia” value ([17]; 125 g ai/ha) was 40 and the “Plant response rating (0 to 100 scale, 0 no effect, 100 complete control), Kochia” value ([17]; 500 g ai/ha) was 100.
With O=c1cccc(Oc2ncc(Cl)cn2)n1-c1ccc(C(F)(F)F)cc1 [Compound 10] the “Plant response rating, Galium” value ([1]; 16 g ai/ha) was 0, the “Plant response rating, Galium” value ([1]; 31 g ai/ha) was 80 and the “Plant response rating, Galium” value ([1]; 62 g ai/ha) was 60. For the same compound, the “Plant response rating, Galium” value ([1]; 125 g ai/ha) was 98, the “Plant response rating, Lambsquarters” value ([2]; 16 g ai/ha) was 35 and the “Plant response rating, Lambsquarters” value ([2]; 31 g ai/ha) was 25. The “Plant response rating, Lambsquarters” value ([2]; 62 g ai/ha) was 35, the “Plant response rating, Lambsquarters” value ([2]; 125 g ai/ha) was 75 and the “Plant response rating, Soybean” value ([3]; 31 g ai/ha) was 20. For the same compound, the “Plant response rating, Oilseed Rape” value ([4]; 16 g ai/ha) was 0, the “Plant response rating, Oilseed Rape” value ([4]; 31 g ai/ha) was 10 and the “Plant response rating, Oilseed Rape” value ([4]; 62 g ai/ha) was 70. For the same compound, the “Plant response rating, Oilseed Rape” value ([4]; 125 g ai/ha) was 80, the “Plant response rating, Crabgrass, Large” value ([5]; 16 g ai/ha) was 75 and the “Plant response rating, Crabgrass, Large” value ([5]; 31 g ai/ha) was 98. For the same compound, the “Plant response rating, Crabgrass, Large” value ([5]; 62 g ai/ha) was 100, the “Plant response rating, Crabgrass, Large” value ([5]; 125 g ai/ha) was 100 and the “Plant response rating, Velvetleaf” value ([6]; 16 g ai/ha) was 0. The “Plant response rating, Velvetleaf” value ([6]; 31 g ai/ha) was 20, the “Plant response rating, Velvetleaf” value ([6]; 62 g ai/ha) was 40 and the “Plant response rating, Velvetleaf” value ([6]; 125 g ai/ha) was 55. For the same compound, the “Plant response rating, Ragweed” value ([7]; 16 g ai/ha) was 35, the “Plant response rating, Ragweed” value ([7]; 31 g ai/ha) was 25 and the “Plant response rating, Ragweed” value ([7]; 62 g ai/ha) was 25. For the same compound, the “Plant response rating, Ragweed” value ([7]; 125 g ai/ha) was 65, the “Plant response rating, Johnsongrass” value ([8]; 16 g ai/ha) was 0 and the “Plant response rating, Johnsongrass” value ([8]; 31 g ai/ha) was 5. The “Plant response rating, Johnsongrass” value ([8]; 62 g ai/ha) was 35, the “Plant response rating, Johnsongrass” value ([8]; 125 g ai/ha) was 70 and the “Plant response rating, Wheat” value ([9]; 16 g ai/ha) was 0. For the same compound, the “Plant response rating, Wheat” value ([9]; 31 g ai/ha) was 0, the “Plant response rating, Wheat” value ([9]; 62 g ai/ha) was 5 and the “Plant response rating, Wheat” value ([9]; 125 g ai/ha) was 5. For the same compound, the “Plant response rating, Waterhemp” value ([10]; 16 g ai/ha) was 70, the “Plant response rating, Waterhemp” value ([10]; 31 g ai/ha) was 95 and the “Plant response rating, Waterhemp” value ([10]; 62 g ai/ha) was 100. For the same compound, the “Plant response rating, Waterhemp” value ([10]; 125 g ai/ha) was 100, the “Plant response rating, Blackgrass” value ([11]; 16 g ai/ha) was 15 and the “Plant response rating, Blackgrass” value ([11]; 31 g ai/ha) was 60. For the same compound, the “Plant response rating, Blackgrass” value ([11]; 62 g ai/ha) was 95, the “Plant response rating, Blackgrass” value ([11]; 125 g ai/ha) was 95 and the “Plant response rating (0 to 100 scale, 0 no effect, 100 complete control), Foxtail, Giant” value ([12]; 31 g ai/ha) was 70. For the same compound, the “Plant response rating (0 to 100 scale, 0 no effect, 100 complete control), Foxtail, Giant” value ([12]; 125 g ai/ha) was 100, the “Plant response rating (0 to 100 scale, 0 no effect, 100 complete control), Barnyardgrass” value ([13]; 31 g ai/ha) was 50 and the “Plant response rating (0 to 100 scale, 0 no effect, 100 complete control), Barnyardgrass” value ([13]; 125 g ai/ha) was 90. The “Plant response rating (0 to 100 scale, 0 no effect, 100 complete control), Ragweed” value ([14]; 31 g ai/ha) was 0, the “Plant response rating (0 to 100 scale, 0 no effect, 100 complete control), Ragweed” value ([14]; 125 g ai/ha) was 10 and the “Plant response rating (0 to 100 scale, 0 no effect, 100 complete control), Pigweed” value ([15]; 31 g ai/ha) was 50. The “Plant response rating (0 to 100 scale, 0 no effect, 100 complete control), Pigweed” value ([15]; 125 g ai/ha) was 100, the “Plant response rating (0 to 100 scale, 0 no effect, 100 complete control), Ryegrass, Italian” value ([16]; 31 g ai/ha) was 10 and the “Plant response rating (0 to 100 scale, 0 no effect, 100 complete control), Ryegrass, Italian” value ([16]; 125 g ai/ha) was 50. The “Plant response rating (0 to 100 scale, 0 no effect, 100 complete control), Kochia” value ([17]; 31 g ai/ha) was 30 and the “Plant response rating (0 to 100 scale, 0 no effect, 100 complete control), Kochia” value ([17]; 125 g ai/ha) was 60.
